Reference: patent US20050192279A1, “Pyridazinones as antagonists of alpha4 integrins” (priority 2004, published 2005)

What was measured:
[1] = molecular target: T1, human α4β7 integrin (Homo sapiens, UniProt P13612+P26010); experiment: α4β7-K562 Cell Adhesion Assay (α4β7 Mediated Adhesion/MAdCAM-1); format: cell-based; settings: α4β7-K562 cell adhesion to hMAdCAM-1; read-out: α4β7 IC50
T1 construct: expressed in transfected cells; host or cells: K562 cells, stably transfected
T1 sequence (P13612 34-1032): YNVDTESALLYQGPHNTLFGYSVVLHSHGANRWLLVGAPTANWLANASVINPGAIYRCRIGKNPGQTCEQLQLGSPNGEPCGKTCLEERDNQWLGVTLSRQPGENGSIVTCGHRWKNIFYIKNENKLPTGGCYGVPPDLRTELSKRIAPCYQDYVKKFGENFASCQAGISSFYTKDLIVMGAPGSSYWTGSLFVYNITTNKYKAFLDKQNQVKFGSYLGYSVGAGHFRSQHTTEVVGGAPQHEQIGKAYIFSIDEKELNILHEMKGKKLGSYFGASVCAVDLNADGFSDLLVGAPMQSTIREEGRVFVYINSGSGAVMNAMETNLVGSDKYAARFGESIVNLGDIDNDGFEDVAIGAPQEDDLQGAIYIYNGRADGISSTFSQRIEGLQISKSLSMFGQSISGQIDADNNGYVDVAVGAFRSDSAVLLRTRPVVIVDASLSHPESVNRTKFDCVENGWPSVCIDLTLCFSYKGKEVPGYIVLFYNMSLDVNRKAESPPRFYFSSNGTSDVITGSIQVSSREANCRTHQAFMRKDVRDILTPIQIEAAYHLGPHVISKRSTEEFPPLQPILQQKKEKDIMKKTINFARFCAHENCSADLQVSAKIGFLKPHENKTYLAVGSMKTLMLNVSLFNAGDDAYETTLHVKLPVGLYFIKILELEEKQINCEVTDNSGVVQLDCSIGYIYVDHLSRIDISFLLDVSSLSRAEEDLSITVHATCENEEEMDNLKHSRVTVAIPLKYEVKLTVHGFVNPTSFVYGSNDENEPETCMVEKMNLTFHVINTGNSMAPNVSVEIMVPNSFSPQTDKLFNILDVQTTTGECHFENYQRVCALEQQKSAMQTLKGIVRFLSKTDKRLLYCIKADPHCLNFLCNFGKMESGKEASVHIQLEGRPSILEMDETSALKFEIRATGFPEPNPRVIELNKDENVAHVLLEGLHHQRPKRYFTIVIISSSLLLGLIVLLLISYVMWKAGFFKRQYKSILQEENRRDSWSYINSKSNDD
T1 sequence (P26010 20-798): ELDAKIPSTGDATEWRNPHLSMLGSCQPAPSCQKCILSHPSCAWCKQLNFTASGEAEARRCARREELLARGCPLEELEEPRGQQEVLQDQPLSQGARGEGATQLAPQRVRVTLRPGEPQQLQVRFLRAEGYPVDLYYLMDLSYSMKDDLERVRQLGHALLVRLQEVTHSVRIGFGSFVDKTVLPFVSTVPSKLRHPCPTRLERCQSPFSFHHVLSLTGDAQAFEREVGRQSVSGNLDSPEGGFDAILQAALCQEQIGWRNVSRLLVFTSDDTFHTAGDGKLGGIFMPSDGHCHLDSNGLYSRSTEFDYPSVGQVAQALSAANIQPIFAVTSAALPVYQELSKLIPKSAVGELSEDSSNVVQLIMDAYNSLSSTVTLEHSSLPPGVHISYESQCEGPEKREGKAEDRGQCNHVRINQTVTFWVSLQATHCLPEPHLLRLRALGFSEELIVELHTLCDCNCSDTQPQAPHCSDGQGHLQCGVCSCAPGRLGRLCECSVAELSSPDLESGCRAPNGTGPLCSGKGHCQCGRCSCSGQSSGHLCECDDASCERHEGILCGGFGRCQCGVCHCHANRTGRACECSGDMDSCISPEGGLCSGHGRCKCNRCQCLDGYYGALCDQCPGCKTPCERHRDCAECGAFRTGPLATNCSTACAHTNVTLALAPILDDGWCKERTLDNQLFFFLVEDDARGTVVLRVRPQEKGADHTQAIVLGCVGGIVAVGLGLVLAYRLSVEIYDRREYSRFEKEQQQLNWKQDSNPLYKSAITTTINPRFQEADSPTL
Procedure, shortened: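 Anti-FLAG plates coated 1 h at 4° C with FLAG-hMAdCAM-1 in PBS pH 7.4, 1% BSA, 1 mM Mn2+. Stably transfected K562 cells expressing human α4β7, labelled with CFDA-SE, adhered with compound 1 h at room temperature. After four washes, bound cells lysed in 0.1 M NaOH for fluorescence read-out.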

[2] = molecular target: T2, α4β1 (Homo sapiens, UniProt P05556+P13612); experiment: Ramos Cell Adhesion Assay (α4β1 Mediated Adhesion/VCAM-1); format: cell-based; settings: Ramos cell adhesion to hVCAM-1; read-out: α4β1 IC50
T2 construct: Ramos Cell Adhesion Assay (α4β1 Mediated Adhesion/VCAM-1); endogenous in cells; host or cells: Ramos cells
Procedure, shortened: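 Plates coated overnight at 4° C with recombinant hVCAM-1 at 4.0 μg/mL, pH 9.0, then blocked in PBS/1% BSA. Calcein AM-labeled Ramos cells added with compounds and left to adhere 1 h at room temperature; after washing, cells lysed in 1 M Tris pH 8.0/1% SDS.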

T2 sequence (P05556 21-798, one chain of several): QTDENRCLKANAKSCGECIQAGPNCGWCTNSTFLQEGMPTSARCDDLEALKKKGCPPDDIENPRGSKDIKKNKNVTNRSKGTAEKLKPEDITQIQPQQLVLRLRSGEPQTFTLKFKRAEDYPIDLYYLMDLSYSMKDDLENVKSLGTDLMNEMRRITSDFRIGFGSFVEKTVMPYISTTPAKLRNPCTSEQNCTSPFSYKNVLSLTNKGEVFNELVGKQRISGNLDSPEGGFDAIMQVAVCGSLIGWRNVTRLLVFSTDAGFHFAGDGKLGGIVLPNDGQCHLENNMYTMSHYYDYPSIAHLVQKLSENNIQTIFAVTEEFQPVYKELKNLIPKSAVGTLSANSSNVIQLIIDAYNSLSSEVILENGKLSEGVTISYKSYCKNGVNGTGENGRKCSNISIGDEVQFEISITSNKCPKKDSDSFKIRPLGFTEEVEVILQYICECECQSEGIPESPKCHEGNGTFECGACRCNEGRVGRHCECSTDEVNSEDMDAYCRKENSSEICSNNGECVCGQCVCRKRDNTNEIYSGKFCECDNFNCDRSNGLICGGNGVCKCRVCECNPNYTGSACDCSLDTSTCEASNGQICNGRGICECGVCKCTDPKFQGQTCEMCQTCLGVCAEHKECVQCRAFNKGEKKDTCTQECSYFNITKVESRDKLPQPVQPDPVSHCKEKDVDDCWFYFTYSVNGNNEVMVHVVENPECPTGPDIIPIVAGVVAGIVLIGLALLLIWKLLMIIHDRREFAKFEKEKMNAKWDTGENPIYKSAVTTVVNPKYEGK

SMILES | IC50 [1] | IC50 [2]
CN[C@H](C(=O)N[C@@H](Cc1ccc(-c2c(OC)cnn(CCN3CCOCC3)c2=O)cc1)C(=O)O)[C@@H](C)OCc1ccccc1 [Cpd 128] | 138 nM | 1490 nM
COc1cnn(C)c(=O)c1-c1ccc(C[C@H](NC(=O)[C@H](O)C(C)C)C(=O)O)cc1 [Cpd 129] | 141 nM | > 1000 nM
COc1ccc2cc(C(=O)N[C@@H](Cc3ccc(-c4c(OC)cnn(C)c4=O)cc3)C(=O)O)c(=O)oc2c1 [Cpd 130] | 147 nM | > 1000 nM
O=C(N[C@@H](Cc1ccc(-c2c(-n3nccc3-c3cccs3)cnn(CCO)c2=O)cc1)C(=O)O)c1c(Cl)cccc1Cl [Cpd 131, (S)-2-(2,6-Dichloro-benzoylamino)-3-{4-[2-(2-hydroxy-ethyl)-3-oxo-5-(5-thiophen-2-yl-pyrazol-1-yl)-2,3-di hydro-pyridazin-4-yl]-phenyl}-propionic acid] | 152 nM | > 5000 nM
COc1cnn(C)c(=O)c1-c1ccc(C[C@H](NC(=O)C2(c3ccc(F)cc3)CCCC2)C(=O)O)cc1 [Cpd 132] | 152 nM | > 5000 nM
COc1cnn(C)c(=O)c1-c1ccc(CC(NC(=O)C2(C(=O)NC(Cc3ccc(-c4c(OC)cnn(C)c4=O)cc3)C(=O)O)CC2)C(=O)O)cc1 (stereo not shown) [Cpd 133] | 10 nM | 1280 nM
COc1cnn(C)c(=O)c1-c1ccc(C[C@H](NC(=O)C23CCC(CC2)CN3C)C(=O)O)cc1 [Cpd 135] | 165 nM | > 1000 nM
COc1cnn(C)c(=O)c1-c1ccc(C[C@H](NC(=O)C2C(C)(C)C2(C)C)C(=O)O)cc1 [Cpd 136, (S)-3-[4-(5-Methoxy-2-methyl-3-oxo-2,3-dihydro-pyridazin-4-yl)-phenyl]-2-[(2,2,3,3-tetramethyl-cyclopropanecarbonyl)-amino]-propionic acid] | 179 nM | 1160 nM
COc1cnn(C)c(=O)c1-c1ccc(C[C@H](NC(=O)c2ccc(C(=O)O)cc2)C(=O)O)cc1 [Cpd 137] | 200 nM | 962 nM
COc1cnn(C)c(=O)c1-c1ccc(C[C@H](NC(=O)c2c(C)cc(C)nc2N)C(=O)O)cc1 [Cpd 138] | 204 nM | 508 nM
COc1cnn(C)c(=O)c1-c1ccc(C[C@H](NC(=O)C23CCC(CC2)CN3C(=O)CCC2CCNCC2)C(=O)O)cc1 [Cpd 139] | 228 nM | 319 nM
CCOc1cnn(C(C)(C)C)c(=O)c1-c1ccc(C[C@H](NC(=O)c2c(Cl)cccc2Cl)C(=O)O)cc1 [Cpd 142] | 230 nM | > 1000 nM
COc1cnn(C)c(=O)c1-c1ccc(C[C@H](NC(=O)C(=O)C(C)C)C(=O)O)cc1 [Cpd 143] | 244 nM | > 1000 nM
COc1cnn(C)c(=O)c1-c1ccc(C[C@H](NC(=O)c2cnoc2C)C(=O)O)cc1 [Cpd 147] | 249 nM | > 5000 nM
Cn1ncc(-n2nccc2-c2cccs2)c(-c2ccc(C[C@H](NC(=O)c3c(Cl)cccc3Cl)C(=O)O)cc2)c1=O [Cpd 148] | 261 nM | > 5000 nM
CN(C)CCOc1cnn(C)c(=O)c1-c1ccc(C[C@H](NC(=O)c2c(Cl)cccc2Cl)C(=O)O)cc1 [Cpd 150] | 271 nM | 154 nM
Cn1ncc(CC(=O)O)c(-c2ccc(C[C@H](NC(=O)c3c(Cl)cccc3Cl)C(=O)O)cc2)c1=O [Cpd 152] | 282 nM | > 5000 nM
